We go through two compounds from patent publication US9539301B2, “Melanotropin ligands for skin care” (THE ARIZONA BOARD OF REGENTS ON BEHALF OF THE UNIVERSITY OF …, priority 2011, dated 2017).

pEC50: −log10 of the molar value. Entries after “also recorded” stand apart in the source; their conditions may differ. Square brackets hold non-standard residues; d marks the D form. Peptide text beside a SMILES is read from it. d2Nal = N[C@H](Cc1ccc2ccccc2c1)C(=O)O; Nle = CCCC[C@H](N)C(=O)O

One data set concerns the target MC5R (Homo sapiens, UniProt P33032). The conditions noted are these: footnote: value denotes an EC50; read-out: EC50 MC5R (values derived from literature); cited from earlier work.
The target in another data set is MC1R (Homo sapiens, UniProt Q01726). The conditions noted are these: footnote: value denotes an EC50; read-out: EC50 MC1R (values derived from literature); cited from earlier work.
MC1R, sequence (Q01726 whole entry): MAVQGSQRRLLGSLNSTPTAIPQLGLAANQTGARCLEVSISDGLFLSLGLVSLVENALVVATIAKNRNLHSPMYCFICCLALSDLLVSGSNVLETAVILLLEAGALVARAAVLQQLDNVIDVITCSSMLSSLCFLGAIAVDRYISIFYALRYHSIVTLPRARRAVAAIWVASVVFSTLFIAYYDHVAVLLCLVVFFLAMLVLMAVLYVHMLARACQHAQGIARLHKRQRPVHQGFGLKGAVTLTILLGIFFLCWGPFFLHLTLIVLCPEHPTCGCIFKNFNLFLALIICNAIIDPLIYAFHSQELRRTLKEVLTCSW
In the next data set the target is MC4R (Homo sapiens, UniProt P32245). The conditions noted are these: footnote: value denotes an EC50; read-out: EC50 MC4R (values derived from literature); cited from earlier work.
MC4R, sequence (P32245 whole entry): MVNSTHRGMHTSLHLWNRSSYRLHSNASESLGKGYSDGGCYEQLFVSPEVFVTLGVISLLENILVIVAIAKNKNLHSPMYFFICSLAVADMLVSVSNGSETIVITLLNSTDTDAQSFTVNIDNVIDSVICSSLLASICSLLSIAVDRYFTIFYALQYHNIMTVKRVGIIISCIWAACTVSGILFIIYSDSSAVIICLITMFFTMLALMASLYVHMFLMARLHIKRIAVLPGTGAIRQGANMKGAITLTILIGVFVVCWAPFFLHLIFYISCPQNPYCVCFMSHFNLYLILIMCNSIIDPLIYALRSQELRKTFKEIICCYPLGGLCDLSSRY
For data set [1], the system named is A375/MC1R and A375 xenograft tumors. As to the kind of experiment: Tumor xenograft fluorescence imaging, in vivo tumor targeting and blocking. On the set-up: species or system nu/nu mice. The protocol: Female nu/nu mice 6-8 weeks old (Harlan Sprague Dawley, Inc., Indianapolis, Ind.) were injected subcutaneously (s.c.) with 1×10^6 MC1R expressing A375 cells in the right and the parental one in the left flank. Tumor volume was determined with calipers using the formula: volume=(length×width^2)/2. Once tumors reached 500-800 mm^3, 1 nmol/kg-30 nmol/kg of MC1R imaging probe in 100 µL sterile saline was injected into the tail vein. In vivo fluorescence images were acquired using the Optix-MX3 (Advance Research Technologies, Inc. a subsidiary of SoftScan Healthcare Group, Montreal, Canada). Animals were positioned on a heating pad and anesthetized using isoflurane (flow 2-2.5 l/min). Fluorescence images were acquired using a scan resolution of 1.5 mm and a 790-nm pulsed laser diode with 40 MHz frequency and 12-ns time window. Images were analyzed using Optix-MX3 Optiview Software (version 3.01). Autofluorescence background was subtracted by determining the mean tumor fluorescence signal prior to injection, then mean normalized intensity values were obtained within a ROI on these images.
Tumors were excised and center slice of each tumor was imaged using both Optix-MX3 (as described above) and IVIS 200 imaging system (Caliper LifeSciences, MA). For IVIS 200 acquisitions, the standard ICG excitation and emission filter set was used for imaging. After imaging, the slices were fixed in formalin and embedded in paraffin for histology. Formalin fixed sections (5 µm) were stained with hematoxylin and eosin (H&E). […]
To investigate tumor targeting of the probe in vivo, bilateral subcutaneous xenograft tumors were established with A375/MC1R engineered cells in the right flank, and A375 parental cells with relatively low MC1R expression in the left flank. After tumor growth to approximately 500-800 mm^3, MC1RL-800 was injected intravenously and fluorescence accumulation was monitored over time. […] IHC staining confirmed the high and low MC1R expression in the two tumor types, and areas with the highest IHC staining corresponded to areas with the highest fluorescence signal (FIG. 27B).

The conditions of data set [2]: mouse, in vivo.
Protocol: (§1) Tumors, kidneys and liver were excised, rinsed with PBS, blotted dry, and then imaged ex vivo with Optix-MX3 as described above. Images were analyzed as described above.
(§2) The pharmacokinetics of probe uptake and clearance was also characterized using a three-compartment mathematical model, which includes tumor, kidney and mouse volumes, and assumes mass conservation of the ligand. This model was used to account for the interference of the tumor ligand release in the uptake and clearance dynamics of blood and kidneys.
The format of data set [3] is physicochemical. The following applies: pH 7.4. On the procedure: The log of the octanol-water partition coefficient at pH 7.4 (log D7.4) was determined by miniaturised shake flask assay. Briefly, (200 µL to 1 mL) n-octanol (Sigam) was added to a solution of the test compound prepared in PBS (25 mM NaH2PO4/Na2HPO4 buffer, pH 7.4, Sigma, HPLC grade). Then, three different ratios of octanol to PBS buffer were prepared. The mixture was stirred in a vortex mixer at room temperature for 1 min and then two layers were separated by centrifuge. The concentration of compound in each layer was determined by HPLC (Poroshell 120 EC-C18 column) using (26% acetonitrile in water, 0.1% TFA) in 280 nm channel. All sample injections were performed 3 times, and the results were averaged to yield the final values.
To measure lipophilicity of the probe, log D (distribution co-efficient) was determined.

The subject of another data set is A375/MC1R cells. As to the kind of experiment: In vitro MC1R probe uptake study (fluorescence microscopy). The format is cell-based, human. On the procedure: Samples were viewed using an Axio Observer Z1 inverted fluorescence microscope (Carl Zeiss, Inc, Germany) using 40×/1.3NA oil immersion objectives through a narrow band Cy5 filter. Cy5 fluorescence images were prepared with a DIC overlay image using Axiovision 4.6 software (Carl Zeiss, Inc, Germany).
To study uptake of the MC1R probe onto and into cells, MC1RL-800 probe was incubated with live cells and images were acquired at different time-points after incubation using an inverted microscope.

The conditions of data set [4]: mouse, in vivo, iv, 5 nmol/kg.
Protocol: as §1, §2
Where [5] appears, read: co-injection 0.25 μg NDP-a-MSH with 5 nmol/kg probe, 2 hr.
The mark [6] stands for this setting: A375/MC1R cells, after incubation.

MC5R, sequence (P33032 whole entry): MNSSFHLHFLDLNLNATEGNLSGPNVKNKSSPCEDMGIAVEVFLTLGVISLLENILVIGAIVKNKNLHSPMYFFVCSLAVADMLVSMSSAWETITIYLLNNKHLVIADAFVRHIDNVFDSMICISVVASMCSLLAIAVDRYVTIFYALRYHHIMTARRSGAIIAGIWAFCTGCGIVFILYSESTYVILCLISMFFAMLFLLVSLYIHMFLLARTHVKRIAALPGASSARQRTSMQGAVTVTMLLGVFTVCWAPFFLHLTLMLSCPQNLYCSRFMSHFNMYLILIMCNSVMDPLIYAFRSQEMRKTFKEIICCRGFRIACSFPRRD

By pEC50 is commonly meant −log10 of the EC50, conventionally taken in molar units. Consider `CCCC[C@H](NC(=O)[C@@H](NC(=O)[C@@H](N)Cc1ccc(O)cc1)C(C)C)C(=O)NCC(=O)N[C@@H](Cc1cnc[nH]1)C(=O)N[C@H](Cc1ccc2ccccc2c1)C(=O)N[C@@H](CCCNC(=N)N)C(=O)N[C@H](Cc1ccccc1)C(=O)N[C@@H](CC(=O)O)C(=O)N[C@@H](CCCNC(=N)N)C(=O)N[C@@H](Cc1ccccc1)C(=O)NCC(N)=O` [Compound 7, H-Tyr-Val-Nle-Gly-His-DNal(2′)-Arg-DPhe-Asp-Arg-Phe-Gly-NH2] (H-YV[Nle]GH[d2Nal]R[dF]DRFG-NH2), for which the pEC50 at MC5R was 8.48; on MC1R, 8.80; at MC4R it was 7.70.
As usually defined, the logD is lipophilicity at a set pH, counting ionised and neutral species. Read a low logD as lower lipophilicity. As usually defined, the half-life is how long it takes for the measured level to halve. `CC1(C)C(=CC=C2CCCC(C=CC3=[N+](CCCCCC(=O)NCCN4C(=O)CC(SCCC(=O)NCCCC[C@H](NC(=O)CNC(=O)[C@H](Cc5c[nH]c6ccccc56)NC(=O)[C@H](CCCNC(=N)N)NC(=O)[C@@H](Cc5ccccc5)NC(=O)[C@H](Cc5c[nH]cn5)NC(=O)CCCc5ccccc5)C(N)=O)C4=O)c4ccc(S(=O)(=O)[O-])cc4C3(C)C)=C2Oc2ccc(S(=O)(=O)O)cc2)N(CCCCS(=O)(=O)O)c2ccc(S(=O)(=O)O)cc21` (stereo partly drawn) [MC1RL-800, 4-phenylbutyryl-His-DPhe-Arg-Trp-Gly-Lys(Mpr-IR800CW)-NH2]: in data set [1] (2 h post-injection, n=3), the “normalized fluorescence signal of A375 (low MC1R) tumors compared to A375/MC1R tumors” value is “significantly lower”. For the same compound, in data set [1] (setting [5]), the “decrease of probe fluorescence signal after blocking, A375/MC1R tumors” value came out at 1.54 fold and the “decrease of probe fluorescence signal after blocking, A375 tumor” value is recorded as 1.4 fold. For the same compound, in data set [2], the “accumulation in the liver” value is on record as “did not accumulate” and the “kidney signal relative to tumor” value worked out at 2 fold. In data set [3], this compound showed a logD of -2.96. For the same compound, the “probe binding after blocking with NDP-α-MSH” value in the data set on A375/MC1R cells (2 μM NDP-α-MSH added before probe) is “No attachment; also recorded: No binding or uptake”. Besides, in the data set on A375/MC1R cells (setting [6]), the “time at which binding of probe to cell surface is observed” value is no more than 15 s and the “time of intracellular accumulation / internalization” value was no more than 5 min. In data set [4], this compound gave a half-life of roughly 10 h.
